Experimental data from patent publication US20050042300A1, “Use of colostrinin, constituent peptides thereof, and analogs thereof as inhibitors of apoptosis and other cellular damage” (priority 2002, published 2005).

How the values were obtained:
Format in all cases: cell-based
[1] = system: 4HNE-protein adducts in PC12 cells; assay: 4HNE-protein adduct formation, immunocytochemistry / fluorescent microscopy
From the text: Cell cultures: Pheochromocytoma (PC12) cells were provided by Dr. Regino Perez-Polo (University of Texas Medical Branch, Department of Human Biological Chemistry and Genetics) and maintained in EMEM supplemented with 10% fetal bovine serum, penicillin (100 IU/ml) and streptomycin (100 micrograms per milliliter (μg/ml)). Exponentially growing populations of PC12 cells were sub-cultured and used for all experiments. Immunocytochemistry: […] Cells were permeabilized by 0.3% Triton X-100, washed in PBS then incubated with primary antibody in PBS containing 0.05% Tween 20 (PBS-T). After washing 3 times in PBS-T, FITC-labeled anti-rabbit IgG (Santa Cruz Biotechnology Inc.) was added. Cells were washed (5 times, for 10 min) with PBS-T and mounted on microscope slides in anti-fade solution (Dako, Inc.). Images of cellular immunofluorescence were acquired using a NIKON Eclipse TE300 scanning microscope. Fluorescent microscopy and Western blot analysis was undertaken to investigate the extent of 4HNE protein-adduct formation in cultures of PC12 cells in the presence of CLN. Cells were pretreated with CLN or LAH in the presence or absence of 4HNE and then analyzed for the formation of 4HNE-protein adducts.

[2] = system: intracellular GSH levels in PC12 cells; assay: Intracellular glutathione (GSH), o-phthalaldehyde fluorescence
Procedure: Measurement of glutathione (GSH): In brief, PC12 cells were mock- or pre-treated with CLN or lactalbumin hydrolysate (LAH), both in 10 μg/ml concentration and then exposed to 4HNE (25 nM). PBS-washed (twice) cells were then extracted with 25% (w/v) metaphosphoric acid solution containing 5 mM EDTA. After ultracentrifugation (105,000 g for 30 min), 100 μl of 100 mM phosphate solution (pH 8.0) containing 5 mM EDTA and 10 μl of o-phthalaldehyde OPA(OPD; Molecular Probes, Inc.) was added to the supernatant, and the fluorescence intensity at 420 nm determined with excitation set at 350 nm (A. P. Senft et al., Anal Biochem., 280:80-86 (2000)).
To investigate whether the anti-oxidant effect of CLN was due to protection of intracellular GSH levels, PC12 cells were pre-treated (with CLN or LAH) and exposed to 4HNE, as described above, and changes in GSH levels were determined fluorimetrically. […] OPA (o-phthalaldehyde or phthalic dicarboxaldehyde) is highly fluorescent when it is conjugated to GSH (A. P. Senft et al., Anal Biochem., 280:80-86 (2000)).

[3] = system: GSH extrusion from PC12 cells; assay: Reduced GSH in extracellular fluid (GSH extrusion), OPA-GSH fluorescence; conditions: 4HNE, relative to CLN- or mock-treated cells, data not shown
Procedure: To determine whether the loss of intracellular GSH was due to it's extrusion from the cells or oxidation, the level of reduced GSH in the extra-cellular fluid was evaluated.

PC12 cells = assay: 4HNE-induced apoptosis, annexin V-PE / 7-AAD flow cytometry
From the text: Apoptosis is a specific mode of cell death recognized by a characteristic pattern of morphological, biochemical, and molecular changes. Currently the hallmark of apoptosis in vitro is DNA fragmentation and changes in plasma membrane reorganization that allows for the surface expression of phosphatidyl-D-serine and result in increased membrane permeability. The protection of cells against 4HNE by CLN using increased permeability and cell membrane expression of phosphatidyl-D-serine was investigated.
Cells were simultaneously labeled with fluorochrome-conjugated annexin V-PE (detecting PS asymmetry in the plasma membrane, an early marker of apoptosis), 7-aminoactinomycin D (7-AAD) (detecting increased membrane permeability associated with both apoptosis and necrosis). A dual laser flow cytometer (either a Becton-Dickinson FACScan) was used for the simultaneous detection of the PE-conjugated annexin V (which is excited at […]), 7-AAD (excited at 488 nm and emitting at 670 nm). Fluorochrome compatibility was excellent, although careful intralaser compensation is required for simultaneous use of PE and 7-AAD.

JNK = assay: 4HNE-induced JNK phosphorylation, Western blot with anti-phospho-(Thr-183/Tyr-185) JNK antibody; conditions: PC12 cells
Procedure: Western blot analysis: PC12 cells were plated at 7×10^6 cells/T75 flask. After exposure to 4HNE, colostrinin or their combination, cells were collected and lysed in 50 millimolar (mM) Tris, 5 mM EDTA, 150 mM NaCI, 0.5% NP-40, 10% glycerol and protease inhibitor cocktail (supplemented with 1 mM Na3VO4, 2 mM EDTA, 1 mM phenylmethylsulfonyl fluoride). Lysates were centrifuged at 14,000 g for 10 minutes (min) (4° C.) and 40 μg of protein was fractionated on a 10% SDS-polyacrylamide gel and transferred to protein-optimized membranes (Amersham, Inc.). p53 was detected using specific antibody (DO1; Santa Cruz Biotechnology, Inc.) at a dilution of 1:300. Adducts were detected using an antibody to HNE-protein adducts (Pharmingen, Inc.) at a dilution of 1:500. The anti-phospho-JNK antibody (New England Biolabs, Inc., Beverly, Mass.) was raised against a synthetic phosphopeptide (SFMMT*PY*VVTRYYR) corresponding to residues 179-193 of JNK. […]
The effect of CLN on 4HNE-induced activation of JNK in PC12 cells was investigated. The activation of JNK was monitored by Western blot analysis using a highly specific anti-phospho- (Thr-183/Tyr-185) JNK antibody (Materials and Methods).

[4] = system: 4HNE-protein adducts in PC12 cells; assay: 4HNE-protein adduct levels, Western blot analysis; conditions: 4HNE alone 25, 12.5, 6.2 nM
Procedure: (§1) Western blot analysis: PC12 cells were plated at 7×10^6 cells/T75 flask. After exposure to 4HNE, colostrinin or their combination, cells were collected and lysed in 50 millimolar (mM) Tris, 5 mM EDTA, 150 mM NaCI, 0.5% NP-40, 10% glycerol and protease inhibitor cocktail (supplemented with 1 mM Na3VO4, 2 mM EDTA, 1 mM phenylmethylsulfonyl fluoride). Lysates were centrifuged at 14,000 g for 10 minutes (min) (4° C.) and 40 μg of protein was fractionated on a 10% SDS-polyacrylamide gel and transferred to protein-optimized membranes (Amersham, Inc.). p53 was detected using specific antibody (DO1; Santa Cruz Biotechnology, Inc.) at a dilution of 1:300. Adducts were detected using an antibody to HNE-protein adducts (Pharmingen, Inc.) at a dilution of 1:500. The anti-phospho-JNK antibody (New England Biolabs, Inc., Beverly, Mass.) was raised against a synthetic phosphopeptide (SFMMT*PY*VVTRYYR) corresponding to residues 179-193 of JNK. For visualization of primary antibody binding, all blots were incubated with horseradish peroxidase-conjugated secondary antibody (Amersham, Inc.) at a dilution of 1:2000, followed by chemiluminescence detection (Amersham, Inc.) and autoradiography.
To confirm the results generated by immunochemistry, Western blot analysis was used to investigate changes in 4HNE-protein adduct levels in cells treated with 4HNE alone or CLN plus 4HNE.

p53 = assay: 4HNE-induced activation of p53, Western blot; conditions: PC12 cells; 4HNE alone
Procedure: as §1
Whether CLN could modulate p53 levels after 4HNE exposure was also investigated.

SH-SY5Y cells = assay: Protection against retinoic acid toxicity in SH-SY5Y cells, graded under the microscope; conditions: for DIFFERENTIATION: Retinoic Acid 20 μM (Day 1) alone
Procedure: Retinoic Acid was left on the plate for the duration of the experiment or until washed off. Colostrinin was added to the plate at the indicated doses. When added on Day 1, it was present during the entire experiment. When added on Day 5, it was incubated on the plate for 30 minutes at 37° C. and then removed. The wells were washed twice with PBS before adding β-Amyloid. Cultures were then observed under the microscope and graded.

CCCCCC(O)/C=C/C=O (stereo not drawn) [4HNE]
fluorescence due to antibody binding to 4HNE-protein adducts ([1]; 4HNE 25 nM alone): bright fluorescence
loss of GSH ([2]; 25 nM 4HNE): more than 50%
intracellular GSH levels (OPA-GSH fluorescence) ([2]; 4HNE 25 nM alone, 30 min): significant reduction
OPA-GSH-mediated fluorescence of extracellular fluid [3]: significant increase
toxic effects / apoptosis (PC12 cells; 4HNE 25 nM): did not show toxic effects or induce apoptosis
apoptosis (PC12 cells; 4HNE 100 nM): Induction of apoptosis
JNK phosphorylation (JNK; 4HNE 25 nM alone): potent inducer of JNK phosphorylation
levels of 4HNE-protein adducts (Western blot) [4]: significant increase
activation of p53 (p53): induced its activation

Nc1ncnc2c1nc(Sc1ccc(Cl)cc1)n2[C@@H]1O[C@@H]2COP(=O)(O)O[C@H]2[C@H]1O [8-(4-chlorophenylthio)-cAMP]
4HNE-induced JNK phosphorylation (JNK; pretreatment with inhibitor of JNK activation, 4HNE): prevented 4HNE-induced JNK phosphorylation

OO [H2O2]
fluorescence due to antibody binding to 4HNE-protein adducts ([1]; H2O2 100 μM): bright fluorescence

CC1=C(/C=C/C(C)=C/C=C/C(C)=C/C(=O)O)C(C)(C)CCC1 [Retinoic Acid]
DIFFERENTIATION (SH-SY5Y cells; observed Day 2): ++++ (Approximately 100% of the cells)
DIFFERENTIATION (SH-SY5Y cells; observed Day 8): + (Approximately 25% of the cells)
onset of toxicity of retinoic acid (SH-SY5Y cells; SH-SY5Y cells, retinoic acid 20 μM): started showing signs of toxicity by day 6
toxicity of retinoic acid (SH-SY5Y cells; SH-SY5Y cells, retinoic acid 40 μM): toxicity developed too rapidly
